Several values for one entry are separate records, joined by “and”; a condition that tells them apart may be missing. Equal entries are not always repeated.
Tested on: HEK293 cells
Test: CXCL8 release by HEK-control cells (LEGENDplex)
Format: cell-based, human
Settings: lugdunin 2 µM, 5 h, two technical replicates, Fig 2a
Method: Fig. 2 Induction of chemokine (C-X-C motif) ligand 8/macrophage inflammatory protein-2 (CXCL8/MIP-2) by lugdunin is TLR2/MyD88-dependent. a HEK-control or HEK-TLR2 cells were treated with 2 μM lugdunin for 5 h and subsequently the CXCL8 concentration in the supernatant was analyzed by LEGENDplex^TM (BioLegend). Shown is one representative experiment of three independent experiments with two technical replicates ± s.e.m. b HEK-control or HEK-TLR2 cells were treated with increasing concentrations of lugdunin for 5 h and subsequently expression of CXCL8 was analyzed and normalized to actin. Shown is one representative experiment of three independent experiments with two technical replicates ± s.e.m. c Schematic overview of the mouse experiments: 6–8-week-old female C5BL/6 WT, MyD88-knockout (ko), or 5xTLR-ko mice were epicutaneously treated with 1.5 µg lugdunin or phosphate-buffered saline (PBS) as a control. […] Significant differences to control treatments were analyzed by an unpaired two-tailed t test (*P < 0.05; **P < 0.01; ***P < 0.001). f Representative MIP-2-stained paraffin-embedded mouse skin sections. […]
Supplementary Figure 2: CXCL8 controls and other cytokines in mouse skin 46 a: HEK-control cells or HEK -TLR2 cells were treated with 100 ng/mL Pam2Cys for 5 47 hours and subsequently the CXCL8 concentration in the supernatant was analyzed. […]

Lugdunin
CXCL8 concentration in supernatant: 39.328 and 39.600
